In patent US20040044000A1, “Isoquinoline derivatives as matrix metalloproteinase inhibitors” (priority 2002, published 2004):

Tests used:
Format in all cases: biochemical
[1] = molecular target: T1, MMP-13 catalytic domain (MMP-13CD) (Homo sapiens, UniProt P45452); experiment: Inhibition of MMP-13 catalytic domain (thiopeptolide substrate hydrolysis); conditions: Biological Table 1; read-out: MMP-13CD IC50
T1 construct: use the catalytic domain of the MMP-13 enzyme, namely matrix metalloproteinase-13 catalytic domain (“MMP-13CD”), rather than the corresponding full-length enzyme
Source text: (§1) The assays measure the amount by which a test compound reduces the hydrolysis of a thiopeptolide substrate catalyzed by a matrix metalloproteinase enzyme. Such assays are described in detail by Ye et al., in Biochemistry, 1992;31(45):11231-11235, which is incorporated herein by reference. One such assay is described below in Biological Method 1.
Some of the particular methods described below use the catalytic domain of the MMP-13 enzyme, namely matrix metalloproteinase-13 catalytic domain (“MMP-13CD”), rather than the corresponding full-length enzyme, MMP-13. It has been shown previously by Ye Qi-Zhuang, Hupe D., and Johnson L. (Current Medicinal Chemistry, 1996;3:407-418) that inhibitor activity against a catalytic domain of an MMP is predictive of the inhibitor activity against the respective full-length MMP enzyme.
(§2) Thiopeptolide substrates show virtually no decomposition or hydrolysis at or below neutral pH in the absence of a matrix metalloproteinase enzyme. A typical thiopeptolide substrate commonly utilized for assays is Ac-Pro-Leu-Gly-thioester-Leu-Leu-Gly-OEt. A 100 μL assay mixture will contain 50 mM of N-2-hydroxyethylpiperazine-N′-2-ethanesulfonic acid buffer (“HEPES,” pH 7.0), 10 mM CaCl2, 100 μM thiopeptolide substrate, and 1 mM 5,5′-dithio-bis-(2-nitro-benzoic acid) (DTNB). The thiopeptolide substrate concentration may be varied, for example from 10 to 800 μM to obtain Km and Kcat values. The change in absorbance at 405 nm is monitored on a Thermo Max microplate reader (molecular Devices, Menlo Park, Calif.) at room temperature (22° C.). The calculation of the amount of hydrolysis of the thiopeptolide substrate is based on E412=13600 M^−1 cm^−1 for the DTNB-derived product 3-carboxy-4-nitrothiophenoxide. Assays are carried out with and without matrix metalloproteinase inhibitor compounds, and the amount of hydrolysis is compared for a determination of inhibitory activity of the test compounds.
(§3) Test compounds were evaluated at various concentrations in order to determine their respective IC50 values, the micromolar concentration of compound required to cause a 50% inhibition of catalytic activity of the respective enzyme.

[2] = molecular target: MMP-3 catalytic domain (MMP-3CD) (Homo sapiens, UniProt P08254); experiment: Inhibition of MMP-3 catalytic domain (thiopeptolide substrate hydrolysis, MES pH 6.0)
Source text: as §1, §2, §3
It should be appreciated that the assay buffer used with MMP-3CD was 50 mM N-morpholinoethane sulfonate (“MES”) at pH 6.0 rather than the HEPES buffer at pH 7.0 described above.

[3] = molecular target: T2, MMP-12 catalytic domain (MMP-12CD) (Homo sapiens, UniProt P39900); experiment: Inhibition of MMP-12 catalytic domain (thiopeptolide substrate hydrolysis)
T2 construct: MMP-3 catalytic domain, MMP-12 catalytic domain, MMP-14 catalytic domain, and MMP-17 catalytic domain
Source text: as §1, §2, §3
(§4) The test described above for the inhibition of MMP-13 may also be adapted and used to determine the ability of the compounds of Formula I to inhibit the matrix metalloproteases MMP-1, MMP-2, MMP-3, MMP-7, MMP-9, MMP-12 and MMP-14.

[4] = molecular target: MMP-14 catalytic domain (MMP-14CD) (Homo sapiens, UniProt P50281); experiment: Inhibition of MMP-14 catalytic domain (thiopeptolide substrate hydrolysis)
Source text: as §1, §2, §3, §4

[5] = molecular target: T3, MMP-17 catalytic domain (MMP-17CD) (Homo sapiens, UniProt Q9ULZ9); experiment: Inhibition of MMP-17 catalytic domain (thiopeptolide substrate hydrolysis)
T3 construct: MMP-3 catalytic domain, MMP-12 catalytic domain, MMP-14 catalytic domain, and MMP-17 catalytic domain
T3 sequence (Q9ULZ9 126-295 limits assumed): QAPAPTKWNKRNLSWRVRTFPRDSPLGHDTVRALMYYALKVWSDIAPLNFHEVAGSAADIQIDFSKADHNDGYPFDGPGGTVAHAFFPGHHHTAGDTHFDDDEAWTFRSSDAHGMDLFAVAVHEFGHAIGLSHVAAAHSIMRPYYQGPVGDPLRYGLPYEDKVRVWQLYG
Source text: as §1, §2, §3

T2 sequence (P39900 106-263 limits assumed, species assumed): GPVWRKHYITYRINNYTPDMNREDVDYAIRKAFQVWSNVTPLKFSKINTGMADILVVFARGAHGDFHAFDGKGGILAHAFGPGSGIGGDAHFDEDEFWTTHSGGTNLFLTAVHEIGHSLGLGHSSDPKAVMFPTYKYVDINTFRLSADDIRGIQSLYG
Chain of MMP-3 catalytic domain (MMP-3CD) (P08254 100-272 limits assumed, species assumed): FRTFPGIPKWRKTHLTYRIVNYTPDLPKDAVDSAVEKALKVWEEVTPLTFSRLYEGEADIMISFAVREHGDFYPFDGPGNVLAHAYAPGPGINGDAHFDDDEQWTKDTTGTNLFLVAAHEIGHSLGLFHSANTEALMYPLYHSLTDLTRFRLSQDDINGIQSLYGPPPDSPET

| Compound | IC50 [1] [µM] | IC50 [2] [µM] | IC50 [3] [µM] | IC50 [4] [µM] | IC50 [5] [µM] |
| --- | --- | --- | --- | --- | --- |
| COc1cccc(CNC(=O)c2ccc3ccn(Cc4ccc(F)c(F)c4)c(=O)c3c2)c1 [Example 24] | 0.093 | > 30 | 14 | 0.093 | > 30 |
| CSc1ccc(CNC(=O)c2ccc3ccn(Cc4ccc(C#N)cc4)c(=O)c3c2)cc1 [Example 40, 2-(4-cyanobenzyl)-1-oxo-1,2-dihydro-isoquinoline-7-carboxylic Acid 4-methylsulfanyl-benzylamide] | 0.43 | 6.2 | 6.8 | > 10 | > 10 |
| Cc1ccc(CNC(=O)c2ccc3ccn(Cc4ccc(-c5nn[nH]n5)cc4)c(=O)c3c2)cc1 [Example 60, 1-oxo-2-[4-(2H-tetrazol-5-yl)benzyl]-1,2-dihydroisoquinoline-7-carboxylic Acid 4-methyl-benzylamide] | 0.22 | 31 | 22 | > 100 | > 100 |
| O=C(O)c1ccc(Cn2ccc3ccc(C(=O)NCc4cccnc4)cc3c2=O)cc1 [Example 30, 4-{1-oxo-7-[(pyridin-3-ylmethyl)carbamoyl]-1H-isoquinolin-2-ylmethyl}benzoic Acid] | 0.4 | > 100 | > 100 | > 100 | > 100 |
| COc1cc(CNC(=O)c2ccc3ccn(Cc4ccc(F)c(F)c4)c(=O)c3c2)ccn1 [Example 23, 2-(3,4-difluorobenzyl)-1-oxo-1,2-dihydroisoquinoline-7-carboxylic acid (2-methoxypyridin-4-ylmethyl)amide] | 0.29 | > 100 | > 100 | > 100 | > 10 |
| O=C(O)c1ccc(Cn2ccc3ccc(C(=O)NCc4ccncc4)cc3c2=O)cc1 [Example 29, 4-{1-oxo-7-[(pyridin-4-ylmethyl)carbamoyl]-1H-isoquinolin-2-ylmethyl}benzoic Acid] | 0.19 | > 100 | > 100 | > 100 | > 100 |
| COc1cc(CNC(=O)c2ccc3ccn(Cc4ccc(-c5nn[nH]n5)cc4)c(=O)c3c2)ccc1O [Example 65, 1-oxo-2-[4-(2H-tetrazol-5-yl)benzyl]-1,2-dihydroisoquinoline-7-carboxylic Acid 4-hydroxy-3-methoxy-benzylamide] | 0.091 | > 100 | > 10 | > 100 | > 30 |
| COc1ccc(CNC(=O)c2ccc3ccn(Cc4ccc(F)c(F)c4)c(=O)c3c2)cc1 [Example 25] | 0.33 | 60 | > 30 | > 100 | > 30 |
| COc1cc(CNC(=O)c2ccc3ccn(Cc4ccc(S(C)(=O)=O)cc4)c(=O)c3c2)ccn1 [Example 51, 2-(4-methane-sulfonylbenzyl)-1-oxo-1,2-dihydro-isoquinoline-7-carboxylic Acid (2-methoxypyridin-4-ylmethyl)amide] | 0.68 | > 100 | > 30 | > 100 | > 100 |
| COc1cccc(CNC(=O)c2ccc3ccn(Cc4ccc(S(C)(=O)=O)cc4)c(=O)c3c2)c1 [Example 53, 2-(4-methane-sulfonylbenzyl)-1-oxo-1,2-dihydro-isoquinoline-7-carboxylic Acid 3-methoxy-benzylamide] | 0.21 | > 30 | 61 | > 100 | > 100 |
| COc1cc(CNC(=O)c2ccc3ccn(Cc4ccc(C(=O)O)cc4)c(=O)c3c2)ccc1O [Example 32] | 0.15 | > 100 | > 100 | > 100 | > 100 |
| O=C(NCCN1CCOCC1)c1ccc(Cn2ccc3ccc(C#CCc4ccccc4)cc3c2=O)cc1 [Example 21, N-(2-morpholin-4-yl-ethyl)-4-[1-oxo-7-(3-phenylprop-1-ynyl)-1H-isoquinolin-2-ylmethyl]-benzamide] | 0.067 | 22 | > 100 | > 100 | > 3 |

Stronger by IC50 [1], values ahead:

| IC50 [1] [µM] | IC50 [2] [µM] | IC50 [3] [µM] | IC50 [4] [µM] | IC50 [5] [µM] | Compound |
| --- | --- | --- | --- | --- | --- |
| 0.032 | 12 | 5 | > 10 | > 10 | CSc1ccc(CNC(=O)c2ccc3ccn(Cc4ccc(-c5nn[nH]n5)cc4)c(=O)c3c2)cc1 [Example 61, 1-oxo-2-[4-(2H-tetrazol-5-yl)benzyl]-1,2-dihydroisoquinoline-7-carboxylic Acid 4-methyl-sulfanylbenzylamide] |
| 0.03 | > 100 | > 100 | > 100 | > 100 | O=C(O)c1ccc(Cn2ccc3ccc(C(=O)NCc4ccc(F)cc4)cc3c2=O)cc1 [Example 31, 4-[7-(4-fluoro-benzylcarbamoyl)-1-oxo-1H-isoquinolin-2-ylmethyl]benzoic Acid] |
| 0.036 | > 100 | > 100 | > 100 | 74 | COc1cc(CNC(=O)c2ccc3ccn(Cc4ccc(C(=O)O)cc4)c(=O)c3c2)ccn1 [Example 27, 4-{7-[(2-methoxypyridin-4-ylmethyl)carbamoyl]-1-oxo-1H-isoquinolin-2-ylmethyl}benzoic acid] |
| 0.039 | 8 | > 30 | > 30 | 2.3 | O=C(NN1CCCCC1)c1ccc(Cn2ccc3ccc(C#CCc4ccccc4)cc3c2=O)cc1 [Example 20, 4-[1-oxo-7-(3-phenylprop-1-ynyl)-1H-isoquinolin-2-ylmethyl]-N-piperidin-1-yl-benzamide] |
| 0.017 | 27 | 56 | > 100 | 11 | COc1ccc(CNC(=O)c2ccc3ccn(Cc4ccc(-c5nn[nH]n5)cc4)c(=O)c3c2)cc1 [Example 58, 1-oxo-2-[4-(2H-tetrazol-5-yl)benzyl]-1,2-dihydroisoquinoline-7-carboxylic Acid 4-methoxy-benzylamide] |
| 0.0029 | 4 | > 30 | > 30 | > 30 | O=c1c2cc(C#CCc3ccccc3)ccc2ccn1Cc1ccc(-c2nn[nH]n2)cc1 [Example 18, 7-(3-phenylprop-1-ynyl)-2-[4-(2H-tetrazol-5-yl)benzyl]-2H-isoquinolin-1-one] |
| 0.049 | 5 | > 100 | 28 | > 100 | N#Cc1ccc(Cn2ccc3ccc(C#CCc4ccccc4)cc3c2=O)cc1 [Example 19] |
| 0.04 | > 100 | > 30 | > 100 | > 100 | O=C(NCc1ccncc1)c1ccc2ccn(Cc3ccc(-c4nn[nH]n4)cc3)c(=O)c2c1 [Example 57, 1-oxo-2-[4-(2H-tetrazol-5-yl)benzyl]-1,2-dihydroisoquinoline-7-carboxylic Acid (pyridin-4-ylmethyl)amide] |
| 0.0029 | > 10 | > 10 | > 30 | > 30 | COc1cccc(CNC(=O)c2ccc3ccn(Cc4ccc(-c5nn[nH]n5)cc4)c(=O)c3c2)c1 [Example 59, 1-oxo-2-[4-(2H-tetrazol-5-yl)benzyl]-1,2-dihydroisoquinoline-7-carboxylic Acid 3-methoxy-benzylamide] |
